Laboratory results from patent publication US7838025B2, “Products and methods for maintaining or increasing ceramide levels in skin” (Kimberly-Clark Worldwide, Inc., priority 2002, dated 2010).

What was measured:
sphingomyelinase = target: T1, sphingomyelinase (Bacillus cereus, UniProt P11889); assay: SAST Sphingomyelinase Activity Screening Test; format: biochemical; conditions: test band brightness divided by average of positive controls; above 1 enhancer, below 1 inhibitor; BODIPY FL C5-Sphingomyelin substrate, 30 minutes, 25° C., PBS pH=7.4
T1 construct: purchased Sigma Chemical, St. Louis, Mo; S7651
Method: Agents, such as botanical extracts and related compounds, for example, are tested for their ability to increase the activity of sphingomyelinase in a sphingomyelinase/sphingomyelin-containing system. An increase in the activity of sphingomyelinase results in an increase in the hydrolysis of sphingomyelin and an increased production of ceramide. The Sphingomyelinase Activity Screening Test to determine the efficacy of an agent is completed as follows:
Step 1: Preparation of Testing Solution Comprising Sphingomyelinase, Sphingomyelin, and Agent: Combine the following to prepare a 100 microliter test solution: (1) 10 microliters of agent (such as a botanical extract, for example) where the agent is an aqueous solution or oil (if the agent is a powder or solid, prepare 10 microliters of a 0.1 microgram/milliliter solution by dissolving the appropriate amount of powder or solid in Phosphate Buffered Saline, pH=7.4); (2) 10 microliters of a 0.1 microgram/milliliter sphingomyelinase (Catalogue No. S7651, Sigma Chemical, St. Louis, Mo. (or equivalent)) in Phosphate Buffered Saline, pH=7.4, solution; (3) 10 microliters of a 250 microgram/milliliter BODIPY FL C5-Sphingomyelin (Molecular Probes, Eugene, Oreg. (or equivalent)) in Phosphate Buffered Saline, pH=7.4, solution; and (4) 70 microliters of Phosphate Buffered Saline, pH=7.4.
Step 2: Preparation of Control Testing Solution Comprising Sphingomyelinase and Sphingomyelin: Combine the following to prepare a 100 microliter test solution: (1) 10 microliters of a 0.1 microgram/milliliter sphingomyelinase in Phosphate Buffered Saline, pH=7.4, solution; (2) 10 microliters of a 250 microgram/milliliter BODIPY FL C5-Sphingomyelin in Phosphate Buffered Saline, pH=7.4, solution; and (3) 80 microliters of Phosphate Buffered Saline, pH=7.4. […]

[1] = system: ceramidase (infant fecal extract); assay: CAST Ceramidase Activity Screening Test; format: biochemical; conditions: relative to positive control, above 1 enhancer, below 1 inhibitor, C5 ceramide substrate, 18 hours, 25° C., PBS pH=7.4
Method: Agents, such as botanical extracts and related compounds, for example, are tested for their ability to decrease the activity of ceramidase in a ceramidase/ceramide system. A decrease in the activity of ceramidase results in an increase in the level of ceramides. The Ceramidase Activity Screening Test is completed as follows:
Step 1: Preparation of Testing Solution Comprising Ceramidase (Fecal Extract), Agent, and Ceramide: Combine the following to prepare a 100 microliter test solution: (1) 10 microliters of agent where the agent is an aqueous solution or oil (if the agent is a powder solid, prepare 10 microliters of a 0.1 microgram/milliliter solution by dissolving the appropriate amount of powder or solid in Phosphate Buffered Saline, pH=7.4); (2) 10 microliters of infant fecal extract in Phosphate Buffered Saline, pH=7.4 prepared by extracting 1 gram of infant feces in 9 mL of Phosphate Buffered Saline, pH=7.4, and vortexing the extraction for about 2 minutes followed by centrifugation to remove any solids; (3) 10 microliters of 250 microgram/milliliter C5 ceramide in Phosphate Buffered Saline, pH=7.4; and (4) 70 microliters of Phosphate Buffered Saline, pH=7.4.
Step 2: Preparation of Control Testing Solution Comprising Ceramidase and Ceramide: Combine the following to prepare a 100 microliter test solution: (1) 10 microliters of infant fecal extract in Phosphate Buffered Saline, pH=7.4; (2) 10 microliters of 250 microgram/milliliter BIODIPY FL C5 ceramide (Molecular Probes, Eugene, Wash.) in Phosphate Buffered Saline, pH=7.4; and (3) 80 microliters of Phosphate Buffered Saline, pH=7.4. […]
Step 3: Illuminate each plate with a 364 nanometer light source and take pictures with a suitable camera, such as a digital Kodak DC 40. The digital image is transferred as a TIFF file to the Alpha Innotech Flourchem Plate Imaging System and analyzed as described above with similar positive (substrate and ceramidase) and negative (substrate and no enzyme) controls. […]

T1 sequence (P11889 28-333): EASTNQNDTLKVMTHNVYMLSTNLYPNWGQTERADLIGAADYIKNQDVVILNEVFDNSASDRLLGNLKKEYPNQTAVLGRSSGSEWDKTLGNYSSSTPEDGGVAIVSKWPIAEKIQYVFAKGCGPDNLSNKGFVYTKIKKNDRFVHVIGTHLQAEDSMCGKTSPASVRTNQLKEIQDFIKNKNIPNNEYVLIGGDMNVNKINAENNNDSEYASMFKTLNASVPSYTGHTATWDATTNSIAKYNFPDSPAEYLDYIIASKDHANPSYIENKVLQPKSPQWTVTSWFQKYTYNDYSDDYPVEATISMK

| Compound | Effect on Sphingomyelinase Activity (sphingomyelinase) [Times Activity] | Effect on Ceramidase Activity [1] |
| --- | --- | --- |
| CC(=O)Oc1c(C)c(C)c2c(c1C)CC[C@@](C)(CCC[C@H](C)CCC[C@H](C)CCCC(C)C)O2 [D1-alpha-Tocophenyl Acetate] | 0.6 | ≧1 Times Activity |
| Potassium Laureth Phosphate | 0.1 | No Effect |
| Sunflower Seedaminopropyl Morpholine Lactate | 0.1 | No Effect |
